PubChem BioAssay AID2842 (Southern Research Institute, 2010)
Values after ≈ are worked out from the molar mass of the structure shown.

What follows are compounds tested on M. tuberculosis H37Rv growth inhibition (assay: Mycobacterium tuberculosis H37Rv growth inhibition, putative kinase inhibitor library, confirmatory dose response (AID 2842);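 also: bacteria incubated one week before Alamar blue readout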).

Compound	IC90 [µg/mL]
COc1cc2c3nnc(-c4ccc(C)c(C)c4)c-3cn(Cc3ccccc3)c2cc1OC	7.35 (≈ 17.4 µM)
O=C(Nc1nnc(-c2ccc(F)cc2)o1)c1ccco1	2.84 (≈ 10.4 µM)
COc1ccccc1N1CCN(c2nc(Nc3ccc(C)c(C)c3)c3nccnc3n2)CC1	1.68 (≈ 3.8 µM)
Cc1ccc2nc(N(CCCn3ccnc3)C(=O)c3cccs3)sc2c1	1.73 (≈ 4.52 µM)
COc1ccc2nc(Nc3nc4c(F)cccc4s3)sc2c1	23.4 (≈ 70.8 µM)
Cc1ccc(C(=O)Nc2nnc(-c3ccc(C)cc3C)o2)c(C)c1	3.99 (≈ 12.4 µM)
COc1cccc2sc(Nc3nc4ccc(S(C)(=O)=O)cc4s3)nc12	20.2 (≈ 51.7 µM)
COc1ccc2c(c1)c(=O)c(C(=O)c1ccc(C)cc1)cn2Cc1cccc(C)c1	6.97 (≈ 17.5 µM)
COc1cc2ccccc2cc1C(=O)Nc1nccs1	30.2 (≈ 106 µM)
Cc1ccc(S(=O)(=O)CCCC(=O)Nc2nc3c(Cl)c(Cl)ccc3s2)cc1	3.41 (≈ 7.69 µM)
Cc1ccc(-c2nnc(NC(=O)CCOc3ccccc3)o2)c(C)c1	1.8 (≈ 5.34 µM)
Cc1cccc(C(=O)Nc2nnc(-c3cc(Cl)ccc3Cl)o2)c1	32 (≈ 91.9 µM)
O=C(Cc1ccc(F)cc1)N(CCCn1ccnc1)c1nc2c(F)cccc2s1	3.66 (≈ 8.87 µM)
Cc1ccc(N=Nc2c(C)[nH][nH]c2=O)cc1	10.1 (≈ 46.6 µM)
N#Cc1ccc(C(=O)Nc2nnc(-c3cccnc3)o2)cc1	53.3 (≈ 183 µM)
Cc1nnc2ccc(-c3cccc(NC(=O)c4cccc(C(F)(F)F)c4)c3)nn12	22.6 (≈ 56.7 µM)
O=C(Nc1nnc(-c2ccc(F)cc2)o1)c1ccc2c(c1)CCCC2	8.65 (≈ 25.6 µM)
C=CCOC(=O)COc1ccc2c(C)c(-c3ccccc3)c(=O)oc2c1	0.85 (≈ 2.43 µM)
Cc1cccc2sc(NNC(=O)c3cc(-c4cccs4)nc4ccccc34)nc12	22.8 (≈ 54.8 µM)
CCCCC(=O)Nc1nnc(-c2ccc(Cl)s2)o1	3.23 (≈ 11.3 µM)
O=C(NCc1nnc(SCC(=O)N2CCC(Cc3ccccc3)CC2)o1)c1ccco1	25.1 (≈ 57 µM)
COc1ccc(C(=O)Oc2cccc(Nc3ncnc4ccccc34)c2)cc1	15.1 (≈ 40.5 µM)
Cc1cc2cc(CNC(=O)C(=O)c3c[nH]c4ccccc34)ccc2[nH]1	8.44 (≈ 25.5 µM)
COC(=O)c1ccc(NC(=O)CSc2nc(-c3ccccc3C)ns2)cc1	0.79 (≈ 1.98 µM)
CCOc1cc(-c2nnc(NC(=O)C(C)C)o2)cc(OCC)c1OCC	9.11 (≈ 25.1 µM)
CCOC(=O)COc1ccc2c(C)c(-c3ccc(OC)c(OC)c3)c(=O)oc2c1	2.34 (≈ 5.87 µM)
O=C(Nc1ncc(Cc2ccccc2Cl)s1)c1cccs1	18.3 (≈ 54.5 µM)

Compound	IC90 [µg/mL]
COc1ccccc1-c1nnc(Nc2nc3c(F)cccc3s2)o1	3.16 (≈ 9.23 µM)
O=C(Nc1nnc(-c2ccc3c(c2)CCCC3)o1)c1cccc(Cl)c1	8.65 (≈ 24.4 µM)
Cc1ccccc1C1C=C(c2cccs2)Nc2nc3ccccc3n21 (centres undefined)	13.8 (≈ 40 µM)
CCOc1ccc2c(c1)c1nnc(-c3ccc(OC)cc3)c-1cn2Cc1cccc(C)c1	20.7 (≈ 48.9 µM)
O=C1CN(C(=O)c2cccc3ccccc23)C(c2ccccc2)c2cc(Br)ccc2N1 (centres undefined)	8.15 (≈ 17.3 µM)
O=C(Nc1nnc(-c2ccc(Br)cc2)o1)c1ccc([N+](=O)[O-])cc1	50.9 (≈ 131 µM)
COc1ccc(-c2noc(-c3cc4ccccc4oc3=Nc3ccc(Br)cc3)n2)cc1	13.3 (≈ 28.1 µM)
CC(C)(C)c1ccc(C(=O)Nc2nnc(-c3ccncc3)o2)cc1	1.18 (≈ 3.66 µM)
O=C(CCN1C(=O)c2ccccc2S1(=O)=O)Nc1ccc(Br)cc1	17.5 (≈ 42.9 µM)
CC(C)(C)c1ccc(C(=O)Nc2nnc(-c3cccnc3)o2)cc1	0.84 (≈ 2.61 µM)
Cc1ccc(C)c(C(=O)Nc2nnc(-c3cc(C)ccc3C)o2)c1	2.56 (≈ 7.97 µM)
CCN(CC)S(=O)(=O)c1ccc(C(=O)Nc2nnc(-c3cc(Cl)ccc3Cl)o2)cc1	7.57 (≈ 16.1 µM)
Cc1ccc(CC(=O)N(CCCn2ccnc2)c2nc3ccccc3s2)c(C)c1	4.82 (≈ 11.9 µM)
c1ccc(CSc2ncnc3nc[nH]c23)cc1	19.5 (≈ 80.3 µM)
O=C(Nc1nnc(-c2cccs2)o1)c1cccc(C(F)(F)F)c1	3.48 (≈ 10.3 µM)
CC(C)N1CCc2c(sc(NC(=O)c3ccc(S(=O)(=O)N(C)c4ccccc4)cc3)c2C(N)=O)C1	12.8 (≈ 25 µM)
O=C(Cc1ccccc1)Nc1nnc(-c2ccc3c(c2)CCCC3)o1	55.8 (≈ 167 µM)
CSc1cccc2sc(Nc3cccc(Br)c3)nc12	6.73 (≈ 19.2 µM)
c1ccc(-c2csc(Nc3nc4cc5c(cc4s3)OCO5)n2)nc1	1.79 (≈ 5.05 µM)
CC(C)(C)c1csc(Nc2nc3c(F)cccc3s2)n1	6.52 (≈ 21.2 µM)
Cc1ccc(-c2nnc(NC(=O)c3ccccc3[N+](=O)[O-])o2)c(C)c1	15.7 (≈ 46.5 µM)
O=C(Nc1ccc(I)cc1)c1ccc([N+](=O)[O-])s1	< 0.2
Cc1oc2c(c1C(=O)NCc1cccnc1)C(=O)c1ccccc1C2=O	8.29 (≈ 23.9 µM)
O=C(Cc1ccccc1)Nc1nnc(-c2ccc(F)cc2)o1	8.35 (≈ 28.1 µM)
O=C(Nc1nnc(-c2ccco2)o1)c1ccc(Oc2ccccc2)cc1	< 0.2
CCOc1ccc2nc(Nc3nc4ccc(NC(C)=O)cc4s3)sc2c1	7.84 (≈ 20.4 µM)
CCOC(=O)c1csc(Nc2nc3c(SC)cccc3s2)n1	3.13 (≈ 8.91 µM)
